PMC7318222, “A Family of Water‐Immiscible, Dipolar Aprotic, Diamide Solvents from Succinic Acid” (Chemsuschem, 2020)
Marks after values point to notes of the source that are not given here.

Columns and labels:
[1] = Octanol/water partition coefficient (Log P(o/w)), shake flask method; type: physicochemical; settings: this work
Description: The succindiamides have large, positive Log P (o/w) values, meaning they favor the organic layer in an octanol/water biphasic system and are therefore more lipophilic.37 In contrast, the traditional dipolar aprotics have large, negative Log P (o/w) values so are more hydrophilic. […] Importantly, none of the succindiamide solvents have a Log P (o/w) above 4, the value that has been set as a threshold for bioaccumulation in the environment. […]
Equation S2. π = ν [DMSO]−ν [cyclohexane] […]
Determination of octanol/water partition coefficient (Log P(o/w))
Determination of the log P(o/w) was done by the shake flask method. 1.5 mL each of octanol and water were mixed in a 4 mL vial. 30 μL of the test solute and 10 μL of an internal standard (diglyme) were added and the mixture was shaken for 30 seconds and allowed to stand overnight. Samples (1 mL) were taken from both the aqueous and organic layers and added to 1.5 mL GC vials for GC analysis.
Log P(o/w) was obtained using Equation S5.

GR = target: T1, GR (Homo sapiens, UniProt P04150); assay: GR-anti CALUX reporter gene assay (antagonistic mode); type: cell-based; design: key: –: no effect observed up to the highest test concentration; settings: PC20, 24 h exposure
T1 construct: expression construct for the full-length human receptor under investigation; expressed in transfected cells; host or cells: human U2-OS cells (ATCC HTB-96), stably transfected
T1 sequence (P04150 1-777): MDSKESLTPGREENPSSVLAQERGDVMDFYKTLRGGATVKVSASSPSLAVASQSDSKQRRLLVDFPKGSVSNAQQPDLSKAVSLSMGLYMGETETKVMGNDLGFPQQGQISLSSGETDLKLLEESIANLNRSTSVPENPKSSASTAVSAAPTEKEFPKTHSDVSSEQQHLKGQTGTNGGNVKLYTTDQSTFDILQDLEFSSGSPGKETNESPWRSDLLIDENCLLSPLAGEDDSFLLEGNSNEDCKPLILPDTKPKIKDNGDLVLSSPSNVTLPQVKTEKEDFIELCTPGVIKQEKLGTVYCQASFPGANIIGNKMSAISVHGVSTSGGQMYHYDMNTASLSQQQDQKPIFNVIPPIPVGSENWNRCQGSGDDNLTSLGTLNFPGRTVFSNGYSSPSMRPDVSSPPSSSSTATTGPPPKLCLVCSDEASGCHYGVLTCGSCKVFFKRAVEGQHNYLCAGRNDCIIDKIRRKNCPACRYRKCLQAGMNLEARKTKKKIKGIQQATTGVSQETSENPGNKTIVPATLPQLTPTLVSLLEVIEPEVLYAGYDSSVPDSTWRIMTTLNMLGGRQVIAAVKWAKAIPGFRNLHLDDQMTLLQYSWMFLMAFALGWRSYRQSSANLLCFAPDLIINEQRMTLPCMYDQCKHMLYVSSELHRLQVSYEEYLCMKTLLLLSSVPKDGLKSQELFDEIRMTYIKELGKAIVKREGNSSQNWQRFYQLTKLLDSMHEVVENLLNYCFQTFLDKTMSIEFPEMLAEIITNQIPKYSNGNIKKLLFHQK
Description: nitroaniline ≥98.0% was purchased from Alfa Aeser. Cyrene was supplied by Circa group. N-butylpyrrolidinone was supplied by Eastman chemicals. […]
Polyarylethersulfone of 55,000 Da were obtained from INGE.BASF, Germany. The CALUX cell lines have been described previously.[1] They are based on human U2-OS cells (ATCC, HTB-96) stably transfected with an expression construct for the full-length human receptor under investigation, and a reporter construct consisting of multimerized responsive elements for the cognate receptor coupled to a minimal promoter element (TATA) and a luciferase gene. Cells were maintained as described previously,[2] using cell culture media and supplements from Fisher Scientific as described in the experimental procedures section. […]
In vitro reporter gene assays
The automated CALUX assays were carried out similarly as described earlier,[12] with some adaptations. In brief, the assay was performed in CO2 independent medium (Fisher Scientific, […]
with 30 µl cell suspension/well. After 24 h, exposure medium was prepared. A dilution series in 0.5log unit increments of each test compound (in DMSO) was added to a 96-wells plate containing assay medium (2% v/v). Of this exposure mixture, 30 µl was added to the assay plates containing the CALUX cells, resulting in a final DMSO concentration of 1%. Additionally, DMSO blanks and a full dose response curve of the relevant reference compound were included on each plate. All samples were tested in triplicate. The preparation of the compound dilution series as well as the exposure of the cells were performed on a Hamilton StarLET liquid handling robot coupled to a Cytomat incubator.
Directly after exposure, plates were sealed with non-breathing plate seals (Plate sealer, easy seal […]
After 24 h the exposure medium was removed using an EL406 washer-dispenser (BioTek) and 10 µl/well triton lysisbuffer was added by the EL406.
Subsequently, the luciferase signal was measured in a luminometer (InfinitePro coupled to a Connect Stacker, both TECAN). In order to be able to detect receptor antagonism, several assays were also performed in antagonistic mode. The assay procedure was as described above, with the only exception that the EC50 concentration of the reference agonist was present during the exposure.
The luminometer data was analysed as follows; the average of the triplicate wells was determined, […]

[2] = design: key to C (carcinogenicity) / M (mutagenicity) / R (reproduction toxicity) / S (skin sensitization): −: absence of property; +: presence of property; ?: no prediction possible; settings: cited from earlier work
[3] = design: method as in PubChem; settings: data obtained from PubChem; ref PubChem; cited from earlier work
[4] = exp: conclusion based on reliable experimental data

Row | SMILES | logP [1] | LEC GR‐anti (GR) | M (mutagenicity) [2, 4] | R (reproduction toxicity) [2, 4] | S (skin sensitization) [2, 4] | M (mutagenicity), in words ([2]; experimental data) | R (reproduction toxicity), in words ([2]; experimental data) | S (skin sensitization), in words ([2]; experimental data) | Log P (o/w) [3] | C (carcinogenicity) [2, 4] | C (carcinogenicity), in words ([2]; experimental data)
1 | CCCCN1CCCC1=O [NBP, N‐Butylpyrrolidinone, reference compound] | 0.99 | – | − (exp) | − (exp) | − (exp) | negative | negative | negative |  |  | 
2 | CN1CCCC1=O [NMP, N‐methyl‐2‐pyrrolidone, reference compound] |  |  | − (exp) | + (exp) | − (exp) | negative | positive | negative | −0.38^[d] | − (exp) | negative

Second part, led by results:

Row | logP [1] | LEC GR‐anti (GR) | SMILES | M (mutagenicity) [2, 4] | R (reproduction toxicity) [2, 4] | S (skin sensitization) [2, 4] | M (mutagenicity), in words ([2]; experimental data) | R (reproduction toxicity), in words ([2]; experimental data) | S (skin sensitization), in words ([2]; experimental data) | Log P (o/w) [3] | C (carcinogenicity) [2, 4] | C (carcinogenicity), in words ([2]; experimental data)
3 | 2.72 | – | CCCCN(CC)C(=O)CCC(=O)N(CC)CCCC [EBSA, N,N′‐diethyl‐N,N′‐dibutylsuccindiamide] |  |  |  |  |  |  |  |  | 
4 | 1.65 | – | CCCCN(C)C(=O)CCC(=O)N(C)CCCC [MBSA, N,N′‐dimethyl‐N,N′‐dibutylsuccindiamide] |  |  |  |  |  |  |  |  | 
5 | 3.77 | – | CCCCN(CCCC)C(=O)CCC(=O)N(CCCC)CCCC [TBSA, N,N,N′,N′‐tetrabutylsuccindiamide] |  |  |  |  |  |  |  |  | 
